{"source": "patent US20220175888A1", "about": "“CARBOXYLATED OSTEOCALCIN FOR TREATMENT OF AMYLOIDOSIS OR DISEASES ASSOCIATED WITH ABNORMAL PROTEIN FOLDING” (NATIONAL INSTITUTE OF IMMUNOLOGY, priority 2018, published 2022)", "key": {"[1]": {"assay": "Gla-OC and Glu-OC in serum by ELISA", "type": "in vivo", "conditions": "5×FAD Tg mice vs Tg controls, 300 ng per mouse per day", "description": "Two-month old 5×FAD Tg mice, both male as well as female were used for the study. For the purposes of this study wild type mice is referred to as Wt and 5×FAD mice is referred to as Tg. All experimental procedures in were approved by the Institutional Animal Ethics Committee. For experimentation, the mice were divided in below groups for treatment:\n1. Wild type mice given vehicle (lx PBS or phosphate buffered saline; pH 7.4). 2. 5×FAD Transgenic mice given vehicle. 3. 5×FAD Transgenic mice given carboxylated osteocalcin (Gla-OC) subcutaneously at doses (300 ng-1000 ng per mouse of weight ranging from 25-28 g for 1 month). 4. Wild type mice given Gla-OC.\nForemost the status of osteocalcin in long bones and serum of amyloid overexpressing 5×FAD Tg mice was evaluated. Thereafter, the effect of osteocalcin administration against amyloidosis in brain was tested. 1. The status of osteocalcin expression in bone was determined by evaluating the mRNA level of Bglap2 gene (gene that encodes osteocalcin in mouse) using quantitative PCR or qPCR. Long bones of mice like femur and tibia were harvested from mice after sacrifice. […] Following amplification, fold changes in gene expression versus β-actin (reference) analysis was determined using the […] (Livak) method. […] Carboxylated (Gla-OC) and undercarboxylated (Glu-OC) forms of osteocalcin in serum of mice was analyzed by ELISA. […]"}, "TFEB": {"tested_on": "TFEB", "assay": "TFEB localization, transcription, protein expression and phosphorylation in astrocytes", "type": "cell-based, mouse", "conditions": "qPCR"}, "astrocytes": {"tested_on": "astrocytes", "assay": "Lysotracker Red / HiLyte Abeta42 confocal microscopy in astrocytes", "type": "cell-based, mouse", "method": "This was further confirmed by surface staining of LRP1 and confocal microscopy (FIG. 4Gc). […] We next assessed how Abeta42 degradation occurs in Gla-OC exposed astrocytes. This was assessed by first evaluating the protein expression of LC3II by immunoblot analysis. Under normal conditions excess cargo in cell is cast-off by a cell through a recycling pathway called ‘autophagy’. The first step in autophagy is autophagosome formation wherein LC3I a cytosolic microtubule associated protein light chain 3 gets lipidated to form LC3II and recruits to autophagosomal membranes to allow cells to be LC3II*, a bona fide marker of autophagy and the first step towards autophagic lysosomal degradation. Another requirement for autophagosomes to be functionally relevant is downstream fusion with lysosomes. Under normal conditions, autophagosomes fuse with endosomes to form a higher order organelle called […] ‘amphisomes’, which then matures to form ‘autolysosomes or terminal lysosomes’. The efficiency of autophagosome/lysosome fusion was evaluated using Lysotracker Red, a fluorescent dye that preferentially accumulates in vesicles with acidic pH. The cells were treated with Lysotracker Red for 20 min and fixed using ice-cold methanol. After confocal microscopy (Ziess) the images were analyzed using Image J (NIH). The co-occurrence of the two signals is shown as Mander's overlap co-efficient (MOC) in the range of values 0 to 1. […] This dye accumulates in acidic intracellular organelles and its fluorescence increases with acidic environments and decreases with that of alkaline. The status of lysosome biogenesis was assessed by immunoblot or immunocytochemistry. […] To evaluate lysosome biogenesis the status of LAMP2 (by immunoblot), cathepsins (by immunoblot and colorimetric activity based assay) and TFEB or transcription factor EB (by immunocytochemistry for cellular localization of transcription, by PCR for evaluating gene transcription, by immunoblot for protein expression and by co-immunoprecipitation and immunoblot to check phosphorylation of TFEB) were evaluated. […]"}}, "note": "Positions of bridges follow the written chain, without caps; N, C: chain ends. Non-standard residues stand in square brackets, D forms with d. No end group written: not given here. Gla = N[C@@H](CC(C(=O)O)C(=O)O)C(=O)O", "data": [{"compound": "YLYQWLGAPVPYPDPL[Gla]PRR[Gla]VC[Gla]LNPDCDELADHIGFQEAYRRFYGPV (disulfide 23-29) [Gla-OC, carboxylated osteocalcin]", "values": [{"measurement": "level of Gla-OC in serum", "setting": "[1]", "value": "significantly increased (p<0.05)"}]}, {"compound": "Cn1cnc(N)c2ncnc1-2", "note": "[3-methyl adenine]", "values": [{"measurement": "transcription of Tfeb gene in the presence of autophagy inhibitors", "setting": "TFEB", "value": "increased"}]}, {"compound": "HiLyte Abeta42: fluorescent HiLyte labelled Abeta42 peptide added to astrocytes; challenge agent, Abeta42 alone comparator", "values": [{"measurement": "number of Lysotracker Red puncta, lower as compared to basal", "setting": "astrocytes; HiLyte Abeta42 treated cells without Gla-OC", "value": 4, "unit": "fold"}, {"measurement": "size of Lysotracker Red puncta", "setting": "astrocytes; astrocyte cultures", "value": "< 0.25", "unit": "μm^2"}, {"measurement": "degree of co-localization of HiLyte Abeta42 with Lysotracker Red (Mander's overlap co-efficient)", "setting": "astrocytes; range of values 0 to 1, Image J analysis", "value": 0.412}]}, {"compound": "CCN(CC)CCCC(C)Nc1ccnc2cc(Cl)ccc12", "note": "(stereo not drawn) [chloroquine]", "values": [{"measurement": "transcription of Tfeb gene in the presence of autophagy inhibitors", "setting": "TFEB", "value": "increased"}]}]}
